Like-named read-outs stand apart in the source and are kept apart here.
Experiments:
[1] = system: tumor cell lines (HL-60, HeLa, PC-3, Caco-2, MCF-7); experiment: WST-1 cytotoxicity assay, tumor cell lines (panel statement); format: cell-based, human; settings: WST-1, 48 h; table 4
Experimental: (§1) For this cytotoxic evaluation of the compounds the commercial available WST-1 assay (Roche) was used according to the manufacturer's instructions. The assay is based on the cleavage of the tetrazolium salt WST-1 by mitochondrial dehydrogenases found in viable cells. In general compounds were added to cells cultured in 96-well plates at 37° C. After 48 h of incubation 10 μl of WST-1 solution was added. The formazan dye was analyzed with an ELISA plate reader at (450 vs. 620) nm. CL-1: human acute myeloid leukemia, HL-60 CL-2: human cervix carcinoma, HeLa CL-3: human prostate carcinoma, PC-3 CL-4: human colon adenocarcinoma, Caco-2 CL-5: human breast adenocarcinoma, MCF-7

[2] = WST-1 cytotoxicity assay, HeLa; format: cell-based; settings: human, HeLa cells (cervix carcinoma); WST-1, 48 h incubation; read-out: EC50 class, cytotoxic effect, CL-2 (HeLa)
Experimental: as §1

[3] = WST-1 cytotoxicity assay, PC-3; format: cell-based; settings: human, PC-3 cells (prostate carcinoma); WST-1, 48 h incubation; read-out: EC50 class, cytotoxic effect, CL-3 (PC-3)
Experimental: as §1

[4] = WST-1 cytotoxicity assay, HL-60; format: cell-based; settings: human, HL-60 cells (acute myeloid leukemia); WST-1, 48 h incubation; read-out: EC50 class, cytotoxic effect, CL-1 (HL-60)
Experimental: as §1

[5] = WST-1 cytotoxicity assay, MCF-7; format: cell-based; settings: human, MCF-7 cells (breast adenocarcinoma); WST-1, 48 h incubation; read-out: EC50 class, cytotoxic effect, CL-5 (MCF-7)
Experimental: as §1

Papain = target: T1, Papain (Carica papaya, UniProt P00784); experiment: papain assay; format: biochemical; settings: 16 μg/ml papain, 2 mM Bz-DL-Arg-pNA, pH 6.5, 30° C., 30 min incubation; read-out: IC50 class, Target T-6 (Papain)
T1 sequence (P00784 134-345): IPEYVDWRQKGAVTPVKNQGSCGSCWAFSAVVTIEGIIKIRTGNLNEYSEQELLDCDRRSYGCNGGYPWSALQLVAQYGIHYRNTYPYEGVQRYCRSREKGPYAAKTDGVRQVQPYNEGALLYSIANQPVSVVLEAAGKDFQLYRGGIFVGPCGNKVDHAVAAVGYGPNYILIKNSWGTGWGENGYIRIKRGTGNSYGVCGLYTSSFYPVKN
Experimental: (§2) In order to investigate the impact of some of the inventive compounds on the activity of key proteases the following assay was performed: Protease activities were measured spectrophotometrically at 30° C. according to Schomburg and Salzmann (Schomburg, B.; Salzmann M. GBF: Enzyme Handbook. Springer Verlag, Berlin Heidelberg, 1991) and Bergmeyer et al. (Bergmeyer, H. U.; Bergmeyer, J.; Graβl, M. Methods of Enzymatic Analysis, Vol. V Enzymes 3: Peptides, Proteinases and Their Inhibitors. pp 55-371, VCH, Weinheim, 1988). The release of 4-nitroaniline was determined at 390 nm with a Spectramax Plus UV/Vis spectrophotometer (Molecular Devices). The cathepsin B assay was performed in a reaction mixture containing 0.2 μg/ml cathepsin B, 2 mM Z-Arg-Arg-pNA in 88 mM KH2PO4, 12 mM Na2HPO4, 1.33 mM EDTA, 0.03% Brij 35 (pH 5.8). The trypsin assay was carried out in a reaction mixture containing 0.1 μg/ml trypsin and 120 μM Ac-Ala-Ala-Ser(PO3H2)-Pro-Arg-pNA in 35 mM HEPES (pH 7.8) and the papain assay in a mixture consisting of 16 μg/ml papain and 2 mM Bz-DL-Arg-pNA in 10 mM Na2HPO4, 2 mM L-Cys, 5 mM EDTA (pH 6.5). In general, reactions were started by addition of peptide substrate after a 30 min incubation of 1-100 μM effector with given concentrations of enzyme.

cathepsin B = cathepsin B (Homo sapiens, UniProt P07858); experiment: cathepsin B assay; format: biochemical; settings: 0.2 μg/ml cathepsin B, 2 mM Z-Arg-Arg-pNA, pH 5.8, 30° C., 30 min incubation; read-out: IC50 class, Target T-8 (Cathepsin)
Experimental: as §2

LpCyp18 = LpCyp18 (Legionella pneumophila, UniProt Q5ZRZ4); experiment: biochemical; settings: IC50 class, Target T-4 (LpCyp18)
hFKBP12 = hFKBP12 (Homo sapiens, UniProt P62942); experiment: protease-coupled PPIase assay, hFKBP12; format: biochemical; settings: 20 nM hFKBP12, substrate Suc-Ala-Phe-Pro-Phe-pNA, chymotrypsin, pH 7.8, 6° C.; read-out: IC50 class, Target T-2 (hFKBP12)
EcParvulin = EcParvulin (Escherichia coli, UniProt P0A9L5); experiment: protease-coupled PPIase assay, EcParvulin; format: biochemical
hPin1 = hPin1 (Homo sapiens, UniProt Q13526); experiment: protease-coupled PPIase assay, hPin1; format: biochemical; settings: 6 nM hPin1, substrate Ac-Ala-Ala-Ser(PO3H2)-Pro-Arg-pNA, trypsin, pH 7.8, 6° C.; read-out: IC50 class, Target T-1 (hPin1)
hCyp18 = hCyp18 (Homo sapiens, UniProt P62937); experiment: protease-coupled PPIase assay, hCyp18; format: biochemical; settings: 10 nM hCyp18, substrate Suc-Ala-Phe-Pro-Phe-pNA, chymotrypsin, pH 7.8, 6° C.; read-out: IC50 class, Target T-3 (hCyp18)
[6] = system: cyclin D1 in MCF-7 and HeLa cells; experiment: Cyclin D1 down regulation (western blot marker analysis); format: cell-based, human
Experimental: MCF-7 (5×10^5 cells/well) and HeLa cells (1.5×10^5 cells/well) were seeded in 6-well plates and incubated at 37° C. over night. Compounds or DMSO (final solvent concentration 0.1%) were added to the cells and incubated for different times as indicated. Subsequently, cells were lysed in RIPA buffer for 30 min on ice and centrifuged for 20 min at 4° C. After addition of electrophoresis sample buffer (4×) and 50 mM DTT to the supernatant, samples were boiled for 4 min at 95° C. Samples (equivalent to 2×10^5 cells/well) were run on a 15% SDS gel followed by blotting onto PVDF membrane.
The membrane was blocked for 1 h in 10 mM Tris (pH 7.5), 100 mM NaCl, 0.1% Tween-20 and 5% non-fat dry milk (blocking buffer) and incubated for 1 h with mouse anti-hCyclin D1 monoclonal antibody (clone DCS-6, BD Biosciences) diluted to 1 μg/ml in blocking buffer. Blots were washed 3×10 min with 10 mM Tris (pH 7.5), 100 mM NaCl, 0.1% Tween-20 (washing buffer) and incubated with 0.7 μg/ml peroxidase-conjugated sheep anti-mouse IgG (Sigma) in blocking buffer for 1 h. After washing 3×10 min with washing buffer, the plot was developed with the ECL+ detection kit (Amersham Biosciences).

[7] = 20 nM EcParvulin, substrate Suc-Ala-Phe-Pro-Phe-pNA, chymotrypsin, pH 7.8, 6° C., read-out: IC50 class, Target T-5 (EcParv)

Chain of hCyp18 (P62937 whole entry): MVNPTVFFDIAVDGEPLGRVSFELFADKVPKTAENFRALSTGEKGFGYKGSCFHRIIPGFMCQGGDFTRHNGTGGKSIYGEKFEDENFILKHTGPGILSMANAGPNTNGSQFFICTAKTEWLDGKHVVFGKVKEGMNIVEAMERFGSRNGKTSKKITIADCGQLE
Chain of hFKBP12 (P62942 whole entry): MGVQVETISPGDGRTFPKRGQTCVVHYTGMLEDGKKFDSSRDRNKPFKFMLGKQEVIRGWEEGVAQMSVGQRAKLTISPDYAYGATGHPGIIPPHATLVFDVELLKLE
Chain of LpCyp18 (Q5ZRZ4 1-164): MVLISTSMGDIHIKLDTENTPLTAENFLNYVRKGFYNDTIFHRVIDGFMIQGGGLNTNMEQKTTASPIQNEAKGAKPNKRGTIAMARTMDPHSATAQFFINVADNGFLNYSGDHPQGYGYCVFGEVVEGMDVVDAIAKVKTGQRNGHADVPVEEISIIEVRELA
Chain of hPin1 (Q13526 whole entry): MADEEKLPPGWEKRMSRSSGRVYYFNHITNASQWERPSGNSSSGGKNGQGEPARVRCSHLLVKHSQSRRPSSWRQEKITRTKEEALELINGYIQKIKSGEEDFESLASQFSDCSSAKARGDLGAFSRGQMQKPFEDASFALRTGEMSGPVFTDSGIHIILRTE
Chain of EcParvulin (P0A9L5 whole entry): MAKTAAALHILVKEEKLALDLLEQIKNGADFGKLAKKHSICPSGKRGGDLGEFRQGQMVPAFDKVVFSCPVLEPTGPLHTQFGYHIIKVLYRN

SMILES	EC50 at 48 h [2] [µM]	EC50 at 48 h [3] [µM]	EC50 at 48 h [4] [µM]	EC50 at 48 h [5] [µM]	other results
Oc1c(F)cccc1NCc1ccccc1Sc1ccc(Cl)cc1 [Compound 357]	< 10	< 10	< 10		cytotoxic effect on the tumor cell lines tested [1]: particular relevance
O=C(NCc1ccccc1)Nc1cc(Cl)c(O)c(NCc2ccccc2Sc2ccc(Cl)cc2)c1 [Compound 631]		10 to 50	< 10		
CC(C)(C)CC(C)(C)NC(=O)Nc1cccc(Cl)c1O [Compound 54]			10 to 50	< 10	
CC(C)(C)CC(C)(C)NC(=O)Nc1cc(Cl)ccc1O [Compound 6]			10 to 50	< 10	
O=C(Nc1cc(Cl)nc(Cl)c1)Nc1cc(Cl)c(O)c(NCc2ccccc2Sc2ccc(Cl)cc2)c1 [Compound 652]		< 10	< 10		cytotoxic effect on the tumor cell lines tested [1]: particular relevance
Cc1c(Cl)cc(NCc2cccc(Oc3ccccc3)c2)c(O)c1Cl [Compound 497]					IC50 (Papain): > 100 µM; IC50 (cathepsin B): 10 to 50 µM
Oc1c(Cl)cc(Cl)cc1NC(=S)Nc1ccccc1C(F)(F)F [Compound 221]			10 to 50	10 to 50	
Cc1c(Cl)cc(NCc2ccccc2C(F)(F)F)c(O)c1Cl [Compound 649]					IC50 (Papain): > 100 µM; IC50 (cathepsin B): 50 to 100 µM
Oc1c(Cl)cc(-c2nc3ccccc3s2)cc1NC(=S)NC1CCCC1 [Compound 653]			< 10	10 to 50	
O=C(NCCc1ccccc1)Nc1cc(Cl)c(O)c(NCc2ccccc2Sc2ccc(Cl)cc2)c1 [Compound 632]		10 to 50	< 10		
CC(O)c1cc(Cl)cc(NCc2ccccc2Sc2ccc(Cl)cc2)c1O (centres unmarked) [Compound 413]	< 10	10 to 50	10 to 50		
Oc1c(Cl)cc(Cl)cc1NCc1ccccc1Sc1ccccc1Cl [Compound 332]	10 to 50	10 to 50	10 to 50		
CC(C)(C)c1ccc(Oc2cccc(CNc3cc(Cl)cc(Cl)c3O)c2)cc1 [Compound 483]	10 to 50	10 to 50			IC50 (LpCyp18): > 100 µM; IC50 (hFKBP12): > 100 µM; IC50 (EcParvulin; [7]): 50 to 100 µM; IC50 (hPin1): 1 to 10 µM; IC50 (hCyp18): 10 to 50 µM
COc1ccc(Oc2cccc(CNc3cc(Cl)cc(Cl)c3O)c2)cc1 [Compound 493]	< 10	< 10	10 to 50		
Cc1c(Cl)cc(NC(=S)NCc2ccccc2)c(O)c1Cl [Compound 254]	10 to 50	10 to 50	10 to 50	10 to 50	IC50 (hPin1): < 1 µM
Oc1c(Cl)cc(Cl)cc1NCc1ccccc1Sc1ccc(Cl)cc1 [Compound 329]	10 to 50	10 to 50	10 to 50	10 to 50	
Oc1c(NCc2ccccc2Sc2ccccc2Cl)ccc(F)c1F [Compound 402]	10 to 50	10 to 50	10 to 50		
Oc1ccccc1NCc1ccccc1Sc1ccc(Cl)cc1 [Compound 630]	< 10	< 10	10 to 50		
O=C(Nc1cc(Cl)cc(Cl)c1O)c1ccc(-c2ccccc2)cc1 [Compound 645]	< 10	< 10	< 10	< 10	cytotoxic effect on the tumor cell lines tested [1]: particular relevance; IC50 (Papain): > 100 µM
Cc1c(Cl)cc(NC(=O)CC(C)CC(C)(C)C)c(O)c1Cl (centres unmarked) [Compound 599]					IC50 (LpCyp18): 50 to 100 µM; IC50 (hFKBP12): > 100 µM; IC50 (EcParvulin): 10 to 50 µM; IC50 (hPin1): 1 to 10 µM; IC50 (Papain): > 100 µM; IC50 (hCyp18): > 100 µM; IC50 (cathepsin B): 50 to 100 µM
Cc1c(Cl)cc(NCc2ccco2)c(O)c1Cl [Compound 646]					IC50 (Papain): > 100 µM; IC50 (cathepsin B): > 100 µM
Oc1c(NCc2ccccc2Sc2cccc(Cl)c2)ccc(F)c1F [Compound 403]	< 10	< 10	10 to 50		
CC(C)(C)CC(C)(C)NC(=O)Nc1ccc(F)c(F)c1O [Compound 150]			10 to 50	< 10	
CC(C)NC(=S)Nc1cc(-c2nc3ccccc3s2)cc(Cl)c1O [Compound 639]			< 10	10 to 50	IC50 (hPin1): < 1 µM; cyclin D1 down regulation [6]: particular relevance
O=C(Nc1cc(Cl)c(O)c(NCc2ccccc2Sc2ccc(Cl)cc2)c1)N1CCOCC1 [Compound 654]	10 to 50			< 10	
O=C(Nc1ccc(Cl)cc1)Nc1cc(Cl)c(O)c(NCc2ccccc2Sc2ccc(Cl)cc2)c1 [Compound 633]		< 10	< 10		cytotoxic effect on the tumor cell lines tested [1]: particular relevance
Oc1c(Cl)cc(Cl)cc1NCc1cccc(OCc2ccccc2)c1 [Compound 484]	< 10	< 10	10 to 50		
Oc1ccc(NCc2ccccc2Sc2ccc(Cl)cc2)c(O)c1 [Compound 1044]	10 to 50	10 to 50	10 to 50		cytotoxic effect on the tumor cell lines tested [1]: particular relevance; IC50 (LpCyp18): 1 to 10 µM; IC50 (hFKBP12): 10 to 50 µM; IC50 (EcParvulin; [7]): 10 to 50 µM; IC50 (hPin1): < 1 µM; IC50 (hCyp18): 10 to 50 µM
CC(C)(C)NC(=S)Nc1cc(-c2nc3ccccc3s2)cc(Cl)c1O [Compound 640]			10 to 50	10 to 50	IC50 (hPin1): 1 to 10 µM

— patent US20110065760A1, “COMPOUNDS FOR THE INHIBITION OF ROTAMASES AND USE THEREOF” (Jerini AG, priority 2002, published 2011)
